Data from patent US7888120B2, “Global regulator of morphogenesis and pathogenicity in dimorphic fungi and uses thereof” (Wisconsin Alumni Research Foundation, priority 2006, dated 2011).

Test system: B. dermatitidis mutant 4-2-2
Assay type: cell-based, Blastomyces dermatitidis

Structure (SMILES): Nc1c(/N=N/c2ccc(-c3ccc(/N=N/c4cc(S(=O)(=O)O)c5ccccc5c4N)cc3)cc2)cc(S(=O)(=O)O)c2ccccc12 [Congo red]
- Sensitivity of mutant versus parent strain T53-19: more sensitive than the parent strain

Structure (SMILES): O=S(=O)([O-])c1cc(Nc2nc(Nc3ccccc3)nc(N(CCO)CCO)n2)ccc1/C=C/c1ccc(Nc2nc(Nc3ccccc3)nc(N(CCO)CCO)n2)cc1S(=O)(=O)[O-].[Na+].[Na+] [calcofluor]
- Sensitivity of mutant versus parent strain T53-19: more sensitive than the parent strain
